The results in this text go back to patent US10150793B2, “Antagonists of CB1 receptor” (INSERM (Institut National de la Santé et de la Recherche …, priority 2011, dated 2018).

Data set [1] in a line: Allopregnanolone and epiallopregnanolone in nucleus accumbens after high dose injection (GC/MS). The settings on record: 50 mg/kg; 30 min after the injections. In kind it is in vivo, Wistar rats. As for the experimental part: The capacity of a compound of the invention to be or not to be converted into active pregnenolone downstream derivatives may be evaluated by administering this compound, for example by injecting 50 mg/kg, to a rat, sacrificing the rat 30 min later, measuring the concentration of allopregnanolone and epiallopregnanolone in nucleus accumbens of rat by GC/MS and comparing these concentrations to allopregnanolone and epiallopregnanolone in a rat whose has been injected only a vehicle or pregnenolone.
The concentrations of allopregnanolone and epiallopregnanolone were measured in nucleus accumbens of individual animal by GC/MS 30 min after the injections.

Data set [2] can be described thus: Diet induced obesity, body weight and body composition. In kind it is in vivo, C57BL/6J mice. As for the experimental part: 2-months old male C57BL/6J mice were ad libitum fed a 60% high-fat diet (HFD; Catalog #D12492, Research Diets, New Brunswick, N.J.) for 8 weeks and subsequently treated either with pegnenolone or vehicle. Homogeneous distribution of the animals in the 3 treatment groups was guaranteed by matching their body weight, fat mass and fasting glucose levels before the start of the pharmacological treatments.
Fat mass and lean mass were assessed in vivo using an EchoMRI analyzer (EchoMedical Systems, Houston, Tex.) before the mice were placed on the HFD, as well as immediately before and at the end of the chronic treatment with pregnegnolone or its vehicle.
In this example the inventors analyzed the ability of pregnenolone to inhibit the effects of CB1 activation in the context of obesity. The effects of pregnenolone on metabolic disorders were studied using the model of diet induced obesity (DIO) in mice. In this procedure animals are maintained on a high fat diet (60% of fat) which progressively induce obesity. After eight weeks on this diet which already induced overweight and excessive fat accumulation in these animals the treatment with pregnenolone was started for thirty days (once a day 2 mg/kg or 5 mg/kg, n=8).

Data set [3] concerns AMPA receptors. Briefly: AMPAR-mediated mEPSC in nucleus accumbens principal neurons. In kind it is cell-based, mouse. To be noted: pregnenolone 100 nM treated slices.
The subject of data set [4] is NMDA receptors. Briefly: Whole cell currents induced by NMDA in nucleus accumbens principal neurons. In kind it is cell-based, mouse. To be noted: −30 mV. As for the experimental part: NMDAR-mediated currents: Changes in holding currents induced by NMDA were measured in cells voltage clamped at −30 mV, to relieve NMDAR from the voltage-dependent magnesium block. AMPAR and GABA-A receptors were blocked with DNQX 20 μM and picrotoxine 50 μM, respectably.
To quantify NMDA receptors-mediated currents we used a different strategy. Because of its slow kinetics and voltage dependence, the isolation of NMDAR-mediated mEPSC is not as reliable as for AMPAR-mediated currents. Thus, we decided to record whole cell currents in response exogenously applied NMDA. In NAc PN voltage-clamped at −30 mV, bath perfusion of NMDA 25 μM for 1 minute induced an inward current of similar magnitude in control slices (115±15.5 pA) and in slices pre-treated with pregnenolone (100 nM: 107±9.6 pA; 1 μM: 108.9±12.5 pA; p=0.91) (FIG. 17 B).

Data set [5] is described as follows: Brain steroid levels after pregnenolone injections. In kind it is in vivo, C57B1/6 mice. To be noted: pregnenolone injections between 2 and 8 mg/kg. The method, then: Data are expressed as mean±SEM (n=7-8 per group). *=P<0.05, ***=P<0.001 compared to vehicle-treated animals (PREG 0 mg/kg).
In this example the inventors studied the effects of the doses of pregnenolone (between 2 and 8 mg/kg) that were able to inhibit the effects of CB1 activation in mice.

Data set [6] has as its target T1, CB1 receptor (Mus musculus, UniProt P47746). Briefly: THC-induced cannabinoid tetrad (body temperature, locomotor activity, catalepsy, analgesia). In kind it is in vivo, mice. Set-up: tissue Charles River Laboratories (France) (animals); host or cells: living mice, whole animal.
Data set [7] addresses T1, CB1 receptor. Briefly: Food intake in 24 h-food deprived mice (fasting/refeeding). To be noted: for effect on food intake in 24 h-food deprived mice: food intake over 1 h. In kind it is in vivo, C57B1/6 mice. Details: tissue Charles River Laboratories (France) (animals); host or cells: living mice, whole animal.
For data set [8], the target named is T1, CB1 receptor. Briefly: Intravenous self-administration of the CB1 agonist WIN 55,212-2. Format: in vivo, CD1 mice. Set-up: tissue Charles River Laboratories (France) (animals); host or cells: living mice, whole animal. The method, then: The intravenous self-administration experiments where the animals learned to self-infuse WIN 55, 212-2 (WIN) were conducted in mouse operant chambers (Model ENV-307A-CT, Medical Associates, Georgia, Vt., USA) using procedures previously described (Mendizabal V, et al., Neuropsychopharmacology. 2006, 31:1957-66).
In order to analyse the effects of pregnenolone administration on the positive reinforcing effect of CB1 activation that are related to the ability of THC to induce addiction, the inventors used the intravenous self-administration model performed in accordance to protocols previously described (Soria et al., 2006; Mendizabal et al., 2006). Intravenous self-administration is considered the best behavioural model of addiction. In this model animals learn to produce an operant response, in our case pocking the nose in a hole, in order to obtain an intravenous infusion of the drug. […] In this schedule animals are required to produce an increasing number of responses (ratio) to obtain one drug infusion, the break-point being the last ratio completed and is considered a reliable measure of the motivation for the drug. On PR session the response requirement to earn an injection escalated according to the following series: 1-2-3-5-12-18-27-40-60-90-135-200-300-450-675-1000.

[9] abbreviates: pregnenolone 5 mg/kg, magnetic resonance.

T1 sequence (P47746 whole entry): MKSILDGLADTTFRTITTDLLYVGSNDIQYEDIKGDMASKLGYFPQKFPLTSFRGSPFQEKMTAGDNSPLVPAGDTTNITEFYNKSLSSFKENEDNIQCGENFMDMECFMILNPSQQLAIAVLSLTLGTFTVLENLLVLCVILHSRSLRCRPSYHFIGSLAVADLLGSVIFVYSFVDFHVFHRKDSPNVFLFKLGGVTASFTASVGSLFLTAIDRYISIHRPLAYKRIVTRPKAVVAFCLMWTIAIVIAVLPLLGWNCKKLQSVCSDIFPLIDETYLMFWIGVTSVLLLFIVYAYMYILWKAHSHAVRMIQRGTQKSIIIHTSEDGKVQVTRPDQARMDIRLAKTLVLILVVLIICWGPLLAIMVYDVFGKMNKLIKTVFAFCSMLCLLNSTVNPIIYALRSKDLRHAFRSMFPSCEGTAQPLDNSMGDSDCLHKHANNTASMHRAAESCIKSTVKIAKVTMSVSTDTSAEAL

For `CC(=O)[C@H]1CC[C@H]2[C@@H]3CC=C4C[C@@H](O)CC[C@]4(C)[C@H]3CC[C@]12C` [Pregnenolone, 5-Pregnen-3β-ol-20-one], the “production of allopregnanolone and epiallopregnanolone in nucleus accumbens” value in data set [1] was “allopregnanolone and epiallopregnanolone increased”. The “effect on food intake in DIO model” value in data set [2] (high fat diet, food intake over 24 hours) is “did not modify food intake”. Moreover, the “effect on body weight” value in data set [2] (high fat diet, once a day 2 or 5 mg/kg for thirty days, effect after 15 days) was “decreased body weight”. Moreover, in data set [2] (setting [9]), the “effect on fat mass” value is reported as “the increase in fat mass was suppressed” and the “effect on lean mass” value is reported as “the decrease in lean mass was blunted”. Also, in data set [3], the “AMPAR-mediated mEPSC amplitude” value was 15.7±0.7 pA and the “AMPAR-mediated mEPSC decay time” value was 4.62 ± 0.06 ms. Also, the “inward current induced by NMDA 25 μM” value in data set [4] (slices pre-treated with 100 nM) amounted to 107±9.6 pA. Also, the “inward current induced by NMDA 25 μM” value in data set [4] (slices pre-treated with 1 μM) came out at 108.9±12.5 pA. Moreover, in data set [5], the “brain concentrations of downstream metabolites (epiallopregnanolone, allopregnanolone)” value is recorded as “did not modify the concentrations of downstream metabolites” and the “brain levels of pregnenolone” value is “increased brain levels of pregnenolone”. Moreover, the “effect on THC-induced cannabinoid tetrad” value in data set [6] (pregnenolone 6 mg/kg before THC, absence of AMG) is given as “decreased all the behaviours of the THC-induced cannabinoid tetrad”. Also, in data set [6] (pregnenolone 6 mg/kg, AMG 50 mg/kg, THC 10 mg/kg), the “effect on the AMG enhancement of THC behavioural effects” value is recorded as “completely reversed”. Moreover, in data set [6] (pregnenolone per se), the “effect on locomotor activity, body temperature, catalepsy and pain threshold in the absence of THC” value is on record as “had no effect”. In addition, in data set [7] (food-deprived (food-restricted) mice, no THC), the “first statistically significant dose for decrease of food intake” value was found to be 6 mg/kg. Also, the “effect on food intake in 24 h-food deprived mice” value in data set [7] (no THC) was “dose-dependently decreased food intake”. Further, in data set [7] (no THC, listed as pregnenolone), the “effect on food intake in 24 h-food deprived mice” value was “dose dependently decreased food intake”. In data set [7] (pregnenolone), the “effect on food intake over 24 hours in fasting/refeeding model” value is “no significant effect was seen over 24 hours”. The “effect on motivation (break-point, progressive ratio schedule)” value in data set [8] (pregnenolone 2 or 4 mg/kg) is listed as “decreased the motivation to self-administer WIN55,212”. In data set [8] (pregnenolone 2 or 4 mg/kg before the session, WIN 12.5 μg/kg per injection), the “effect on self-administration of WIN55,212” value is “profoundly reduced the self-administration of WIN55,212”.
